Source: ChEMBL document CHEMBL5380779, “Small Molecules Targeting the RNA-Binding Protein HuR Inhibit Tumor Growth in Xenografts” (J Med Chem, 2023)
Active and inactive are the calls of the source. The rule behind the calls is not given here.

What was measured:
MDA-MB-231 [1] = experiment: Antitumor activity against human MDA-MB-231 cells xenografted athymic NCr-nu/nu mouse assessed as tumor growth delay by measuring tumor size at 400 mm^3 at 50 mg/kg, ip administered 5 times a week for 3 weeks in presence of docetaxel (reference value: 15 days); type: functional
[2] = target: Thrombospondin-1 (Homo sapiens) (UniProt P07996); experiment: Inhibition of TGFbeta2-induced THBS1 protein expression in human MDA-MB-231 cells at 10 uM incubated for 48 hrs by Western blotting analysis; type: cell-based
MDA-MB-231 [3] = experiment: Inhibition of HuR-16-nt biotinylated ARE Msi1 mRNA binding in human MDA-MB-231 cells at 20 uM by Western blotting analysis based pull-down assay; type: cell-based
[4] = target: Thrombospondin-1 (Homo sapiens) (UniProt P07996); experiment: Inhibition of TGFbeta1-induced THBS1 protein expression in human MDA-MB-231 cells at 10 uM incubated for 48 hrs by Western blotting analysis; type: cell-based
MDA-MB-231 [5] = experiment: Inhibition of HuR-TGFB2 mRNA binding in human MDA-MB-231 cells incubated for 6 hrs by RNP immunoprecipitation assay; type: cell-based
[6] = Inhibition of full-length HuR-ARE fluorescein-labeled Msi1 mRNA binding (unknown origin) incubated for 2 hrs by fluorescence polarization assay; set-up: species or system Homo sapiens
MDA-MB-231 [7] = experiment: Inhibition of HuR-XIAP mRNA binding in human MDA-MB-231 cells at 10 uM incubated for 6 hrs by RNP immunoprecipitation assay; type: cell-based
MDA-MB-231 [8] = experiment: Antitumor activity against human MDA-MB-231 cells xenografted athymic NCr-nu/nu mouse assessed as tumor growth delay by measuring tumor size at 400 mm^3 at 50 mg/kg, ip administered 5 times a week for 3 weeks (reference value: 15 days); type: functional
MDA-MB-231 [9] = experiment: Inhibition of HuR-Bcl-2 mRNA binding in human MDA-MB-231 cells at 10 uM incubated for 6 hrs by RNP immunoprecipitation assay; type: cell-based
MDA-MB-231 [10] = experiment: Inhibition of HuR-THBS1 mRNA binding in human MDA-MB-231 cells assessed as half life of THBS1 in presence of actinomycin D (reference value: 10.46 hrs); type: cell-based
[11] = Toxicity in athymic NCr-nu/nu mouse xenografted with human 2LMP cells assessed as effect on body weight gain at 50 mg/kg, ip administered 5 times a week for 3 weeks; type: organism-based; conditions: in vivo, 504 h
MDA-MB-231 [12] = experiment: Cytotoxicity against HuR knockout 1 human MDA-MB-231 cells assessed as inhibition of cell growth by MTT assay (reference value: 5.320 uM); type: functional, cell-based
MDA-MB-231 [13] = experiment: Inhibition of HuR-Msi2 mRNA binding in human MDA-MB-231 cells at 10 uM incubated for 6 hrs by RNP immunoprecipitation assay; type: cell-based
[14] = target: RNA-binding protein Musashi homolog 2 (Homo sapiens) (UniProt Q96DH6); experiment: Inhibition of TGFbeta2-induced Msi2 protein expression in human MDA-MB-231 cells at 10 uM incubated for 48 hrs by Western blotting analysis; type: cell-based
MDA-MB-231 [15] = experiment: Cytotoxicity against human MDA-MB-231 cells assessed as inhibition of cell growth by MTT assay; type: functional, cell-based
MDA-MB-231 [16] = experiment: Downregulation of Bcl-2 protein expression in human MDA-MB-231 cells incubated for 48 hrs by Western blotting analysis; type: functional, cell-based; conditions: dose 5-10 µM
MDA-MB-231 [17] = experiment: Antitumor activity against human MDA-MB-231 cells xenografted athymic NCr-nu/nu mouse assessed as reduction in tumor size at 50 mg/kg, ip administered 5 times a week for 3 weeks; type: functional, organism-based
MDA-MB-231 [18] = experiment: Antitumor activity against human MDA-MB-231 cells xenografted athymic NCr-nu/nu mouse assessed as reduction in tumor size at 50 mg/kg, ip administered 5 times a week for 3 weeks in presence of docetaxel; type: functional, organism-based
[19] = Antitumor activity against human 2LMP cells xenografted athymic NCr-nu/nu mouse assessed as tumor growth inhibition at 50 mg/kg, ip administered 5 times a week for 3 weeks; type: functional; conditions: 504 h, read-out: TGI
[20] = target: RNA-binding protein Musashi homolog 2 (Homo sapiens) (UniProt Q96DH6); experiment: Inhibition of TGFbeta1-induced Msi2 protein expression in human MDA-MB-231 cells at 10 uM incubated for 48 hrs by Western blotting analysis; type: cell-based
MDA-MB-231 [21] = experiment: Downregulation of Msi2 protein expression in human MDA-MB-231 cells incubated for 48 hrs by Western blotting analysis; type: functional, cell-based; conditions: dose 5-10 µM
[22] = target: ELAV-like protein 1 (Homo sapiens) (UniProt Q15717); experiment: Inhibition of TGFbeta1-induced HuR protein expression in human MDA-MB-231 cells at 10 uM incubated for 48 hrs by Western blotting analysis; type: cell-based
[23] = target: ELAV-like protein 1 (Homo sapiens) (UniProt Q15717); experiment: Inhibition of TGFbeta2-induced HuR protein expression in human MDA-MB-231 cells at 10 uM incubated for 48 hrs by Western blotting analysis; type: cell-based
MDA-MB-231 [24] = experiment: Downregulation of TGFB2 mRNA expression in human MDA-MB-231 cells transfected with THBS1-ORF at 5 to 10 uM incubated for 24 hrs; type: functional, cell-based; conditions: dose 5-10 µM
[25] = target: ELAV-like protein 1 (Homo sapiens) (UniProt Q15717); experiment: Thermal stabilization of HuR in human MDA-MB-231 cells at 20 uM at 42 to 54 degreeC incubated for 1 hr by western blot based cellular thermal shift assay; type: cell-based
MDA-MB-231 [26] = experiment: Inhibition of HuR-TGFB2 mRNA binding in human MDA-MB-231 cells assessed as half life of TGFB2 in presence of actinomycin D (reference value: 7.202 hrs); type: cell-based
MDA-MB-231 [27] = experiment: Downregulation of HuR protein expression in human MDA-MB-231 cells at 5 to 10 uM incubated for 48 hrs by Western blotting analysis; type: functional, cell-based; conditions: dose 5-10 µM
MDA-MB-231 [28] = experiment: Cytotoxicity against HuR knockout 2 human MDA-MB-231 cells assessed as inhibition of cell growth by MTT assay (reference value: 5.320 uM); type: functional, cell-based
MDA-MB-231 [29] = experiment: Inhibition of cell invasion of human MDA-MB-231 cells at 10 uM incubated for 24 hrs by crystal violet staining based analysis; type: functional
MDA-MB-231 [30] = experiment: Downregulation of XIAP protein expression in human MDA-MB-231 cells incubated for 48 hrs by Western blotting analysis; type: functional, cell-based; conditions: dose 5-10 µM
MDA-MB-231 [31] = experiment: Inhibition of HuR-THBS1 mRNA binding in human MDA-MB-231 cells incubated for 6 hrs by RNP immunoprecipitation assay; type: cell-based

Sequence of ELAV-like protein 1 (Homo sapiens) (Q15717 whole entry): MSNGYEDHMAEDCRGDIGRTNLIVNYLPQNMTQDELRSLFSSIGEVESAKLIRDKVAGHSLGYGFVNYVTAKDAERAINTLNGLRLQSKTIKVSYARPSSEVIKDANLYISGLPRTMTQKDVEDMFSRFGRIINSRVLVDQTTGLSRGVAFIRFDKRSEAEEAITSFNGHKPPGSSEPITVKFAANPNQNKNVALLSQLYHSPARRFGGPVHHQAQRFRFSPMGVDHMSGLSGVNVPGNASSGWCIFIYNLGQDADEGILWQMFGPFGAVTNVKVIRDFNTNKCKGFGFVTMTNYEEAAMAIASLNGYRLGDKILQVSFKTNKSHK
Sequence of Thrombospondin-1 (Homo sapiens) (P07996 19-1170 limits assumed): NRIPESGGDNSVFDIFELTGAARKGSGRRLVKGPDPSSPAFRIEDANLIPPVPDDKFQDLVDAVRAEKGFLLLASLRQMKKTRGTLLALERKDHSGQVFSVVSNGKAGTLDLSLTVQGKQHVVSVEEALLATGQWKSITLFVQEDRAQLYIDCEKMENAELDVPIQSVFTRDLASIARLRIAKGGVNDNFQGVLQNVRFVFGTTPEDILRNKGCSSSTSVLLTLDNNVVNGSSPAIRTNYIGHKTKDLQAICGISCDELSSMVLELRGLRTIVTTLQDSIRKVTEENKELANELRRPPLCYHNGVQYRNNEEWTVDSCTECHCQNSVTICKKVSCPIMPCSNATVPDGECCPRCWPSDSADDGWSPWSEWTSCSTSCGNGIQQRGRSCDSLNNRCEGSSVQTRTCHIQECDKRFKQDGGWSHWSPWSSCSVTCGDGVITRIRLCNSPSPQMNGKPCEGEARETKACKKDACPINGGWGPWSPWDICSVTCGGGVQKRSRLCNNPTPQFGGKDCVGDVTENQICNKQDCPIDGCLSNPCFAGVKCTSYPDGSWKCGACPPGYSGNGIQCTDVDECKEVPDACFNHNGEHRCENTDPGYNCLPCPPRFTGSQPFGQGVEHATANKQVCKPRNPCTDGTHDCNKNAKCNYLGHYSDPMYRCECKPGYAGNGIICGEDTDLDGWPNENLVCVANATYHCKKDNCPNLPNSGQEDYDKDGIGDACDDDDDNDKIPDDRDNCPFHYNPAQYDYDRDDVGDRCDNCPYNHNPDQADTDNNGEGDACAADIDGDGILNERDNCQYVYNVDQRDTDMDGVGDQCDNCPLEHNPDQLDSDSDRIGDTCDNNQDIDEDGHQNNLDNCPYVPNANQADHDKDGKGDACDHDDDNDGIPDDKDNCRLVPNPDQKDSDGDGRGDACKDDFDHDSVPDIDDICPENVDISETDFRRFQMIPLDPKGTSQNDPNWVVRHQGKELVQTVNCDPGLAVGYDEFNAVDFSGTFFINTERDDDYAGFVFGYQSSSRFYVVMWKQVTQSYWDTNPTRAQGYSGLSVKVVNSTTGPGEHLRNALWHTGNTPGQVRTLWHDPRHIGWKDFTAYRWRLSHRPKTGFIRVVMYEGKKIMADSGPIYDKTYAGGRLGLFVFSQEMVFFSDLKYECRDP
Sequence of RNA-binding protein Musashi homolog 2 (Homo sapiens) (Q96DH6 whole entry): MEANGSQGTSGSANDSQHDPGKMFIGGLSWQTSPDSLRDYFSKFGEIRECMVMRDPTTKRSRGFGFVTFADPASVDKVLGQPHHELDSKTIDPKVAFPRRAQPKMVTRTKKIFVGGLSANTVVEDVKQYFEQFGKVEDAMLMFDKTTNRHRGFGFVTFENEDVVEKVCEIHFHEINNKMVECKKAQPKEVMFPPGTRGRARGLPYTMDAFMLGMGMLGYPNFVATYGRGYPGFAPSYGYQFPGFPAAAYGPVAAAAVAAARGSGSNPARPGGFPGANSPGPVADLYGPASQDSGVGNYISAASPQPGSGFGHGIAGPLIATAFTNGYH

In the case of `CC(C)(C)c1ccc(C(=O)Nc2ccc3[nH]c(C(=O)NO)cc3c2)cc1`, the Time (MDA-MB-231 [1]) is reported as 32 days, the inhibition [2] is reported as “Active” and the inhibition (MDA-MB-231 [3]) is reported as “Active”. The inhibition [4] was “Active”, the inhibition (MDA-MB-231 [5]) was “Active” and the IC50 [6] was 2.77 µM. The Ki [6] was 0.65 µM, the inhibition (MDA-MB-231 [7]) was “Active” and the Time (MDA-MB-231 [8]) was 18 days. For the same compound, the inhibition (MDA-MB-231 [9]) was “Active”, the T1/2 (MDA-MB-231 [10]) was 6.15 h and the Activity [11] was “Non-Toxic”. The IC50 (MDA-MB-231 [12]) was 16.1 µM, the inhibition (MDA-MB-231 [13]) was “Active” and the inhibition [14] was “Active”. For the same compound, the IC50 (MDA-MB-231 [15]) was 4.74 µM, the Activity (MDA-MB-231 [16]) was “Dose-Dependent Effect” and the Activity (MDA-MB-231 [17]) was “Active”. For the same compound, the Activity (MDA-MB-231 [18]) was “Active”, the inhibition in vivo at 50 mg/kg [19] was 35% and the inhibition [20] was “Active”. For the same compound, the Activity (MDA-MB-231 [21]) was “Dose-Dependent Effect”, the inhibition [22] was “Active” and the inhibition [23] was “Active”. For the same compound, the Activity (MDA-MB-231 [24]) was “Active”, the Activity [25] was “Active” and the T1/2 (MDA-MB-231 [26]) was 4.76 h. The Activity (MDA-MB-231 [27]) was “inactive”, the IC50 (MDA-MB-231 [28]) was 12.5 µM and the inhibition (MDA-MB-231 [29]) was “Active”. For the same compound, the Activity (MDA-MB-231 [30]) was “Dose-Dependent Effect” and the inhibition (MDA-MB-231 [31]) was “Active”.
